Values quoted from earlier work as cited in paper PMC9775153, “Portability of a Small-Molecule Binding Site between Disordered Proteins” (Biomolecules, 2022).

Key:
[1] = molecular target: T1, Myc402–412 peptide (Homo sapiens, UniProt P01106); parameters: method as in PMID 19022175; conditions: 20 µM peptide; cited from earlier work
T1 construct: purchased Genscript; host or cells: solid phase peptide synthesis

[2] = tested on: Max; parameters: method as in PMID 13679853; conditions: cited from earlier work
[3] = tested on: Myc-Max dimerization; parameters: method as in PMID 13679853; conditions: cited from earlier work

CCc1ccc(/C=C2/SC(=S)NC2=O)cc1 [1RH]
effect on peptide secondary structure (CD) [1]: induced a substantial shift in the peptide’s secondary structure
interaction with Max [2]: not to interact
effect on Myc-Max dimerization [3]: disrupted Myc-Max dimerization
